This is an account of results in US9975888B2, “Aryl linked imidazole and triazole derivatives and methods of use thereof for improving the pharmacokinetics of a drug” (MERCK SHARP & DOHME CORP., priority 2013, dated 2018).

What all share (format): biochemical
One experiment has as its target T1, CYP2C19 (Homo sapiens, UniProt P33261).
T1 construct: 0.1 mg/mL protein human liver microsomes (BD Gentest); tissue BD Gentest; host or cells: human liver microsomes
Briefly: Cocktail assay for CYPs, mephenytoin 4′-hydroxylation (CYP2C19), human liver microsomes. The settings on record: 30 μM mephenytoin, 0.1 mg/mL human liver microsomes, 10 min at 37° C.; read-out: CYP IC50 (nM) 2C19. In a few lines: (§1)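 Pooled human liver microsomes (0.1 mg/mL) with probe cocktail incl. 5 μM diclofenac (CYP2C9) and 30 μM mephenytoin (CYP2C19), 1 mM NADPH, pH 7.4 phosphate buffer, 10 min at 37° C. Metabolites quantified by LC/MS/MS against internal standard; % inhibition versus no-inhibitor control, IC50 by non-linear regression.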
(In general: Microsomes from liver hold many membrane-bound enzymes, among them those of drug oxidation.)

Experiment [1] has as its target T2, CYP3A4 (Homo sapiens, UniProt P08684). Briefly: IC50 vs CYP3A by inhibition of lopinavir metabolism in human liver microsomes. The arrangement: 0.01 mg/mL protein human liver microsomes (BD Gentest); tissue BD Gentest; host or cells: human liver microsomes. The settings on record: 1.5 μM lopinavir, 0.01 mg/mL human liver microsomes, 8 min at 37° C.; read-out: CYP IC50 (nM) 3A4 (LPV). Summed up: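 Human liver microsomes (0.01 mg/mL) with 1.5 μM lopinavir, 1 mM NADPH, 3.3 mM MgCl2 in 100 mM potassium phosphate pH 7.4, 8 min at 37 °C, six compound concentrations. Summed M2/M3/M4 hydroxy metabolites quantified by LC/MS/MS against tolbutamide; % inhibition normalised between no-inhibitor and 5 μM ketoconazole controls, IC50 by non-linear regression.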
Target sequence in this assay (P08684 2-503): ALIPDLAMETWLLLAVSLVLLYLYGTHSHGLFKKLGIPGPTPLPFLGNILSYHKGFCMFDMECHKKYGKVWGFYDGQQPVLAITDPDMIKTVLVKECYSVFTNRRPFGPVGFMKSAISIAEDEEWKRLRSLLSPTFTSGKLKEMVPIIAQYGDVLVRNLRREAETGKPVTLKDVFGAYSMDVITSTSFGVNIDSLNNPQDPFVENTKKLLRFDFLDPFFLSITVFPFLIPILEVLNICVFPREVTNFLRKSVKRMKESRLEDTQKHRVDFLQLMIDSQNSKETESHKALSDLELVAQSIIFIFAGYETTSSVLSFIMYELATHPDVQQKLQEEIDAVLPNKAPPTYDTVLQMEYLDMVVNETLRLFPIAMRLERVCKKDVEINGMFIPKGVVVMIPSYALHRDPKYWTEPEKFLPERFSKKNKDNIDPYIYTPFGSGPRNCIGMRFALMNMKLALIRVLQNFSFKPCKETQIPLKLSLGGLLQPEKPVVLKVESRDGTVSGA

The target of another experiment is T3, CYP1A2 (Homo sapiens, UniProt P05177).
T3 construct: 0.1 mg/mL protein human liver microsomes (BD Gentest); tissue BD Gentest; host or cells: human liver microsomes
T3 sequence (P05177 1-516): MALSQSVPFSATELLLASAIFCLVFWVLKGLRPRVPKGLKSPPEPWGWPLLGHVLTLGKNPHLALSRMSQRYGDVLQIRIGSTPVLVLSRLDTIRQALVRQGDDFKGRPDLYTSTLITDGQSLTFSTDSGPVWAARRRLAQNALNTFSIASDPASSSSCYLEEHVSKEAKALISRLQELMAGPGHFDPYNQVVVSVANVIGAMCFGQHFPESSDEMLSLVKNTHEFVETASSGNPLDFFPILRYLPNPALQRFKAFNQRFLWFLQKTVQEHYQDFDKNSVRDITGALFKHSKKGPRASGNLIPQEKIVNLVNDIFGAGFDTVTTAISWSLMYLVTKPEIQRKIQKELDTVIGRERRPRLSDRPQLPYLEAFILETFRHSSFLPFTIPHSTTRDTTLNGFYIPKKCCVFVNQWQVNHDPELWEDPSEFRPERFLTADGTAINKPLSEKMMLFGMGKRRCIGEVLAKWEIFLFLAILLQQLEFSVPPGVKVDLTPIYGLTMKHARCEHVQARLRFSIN
Briefly: Cocktail assay for CYPs, phenacetin O-deethylation (CYP1A2), human liver microsomes. The settings on record: 10 μM phenacetin, 0.1 mg/mL human liver microsomes, 10 min at 37° C.; read-out: CYP IC50 (nM) 1A2. Summed up:
(§2)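 Pooled human liver microsomes (0.1 mg/mL) with a probe cocktail of 10 μM phenacetin, 5 μM dextromethorphan and 2 μM midazolam plus NADPH, pH 7.4, 10 min at 37° C. Each metabolite was quantified by LC/MS/MS against a tolbutamide internal standard. IC50 came from % inhibition at 6 concentrations (e.g. 0.0032–10 μM) by non-linear regression.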

In experiment [2] the target is T2, CYP3A4. Briefly: Cocktail assay for CYPs, midazolam 1′-hydroxylation (CYP3A4), human liver microsomes. The arrangement: 0.1 mg/mL protein human liver microsomes (BD Gentest); tissue BD Gentest; host or cells: human liver microsomes. To be noted: 2 μM midazolam, 0.1 mg/mL human liver microsomes, 10 min at 37° C.; read-out: CYP IC50 (nM) 3A4 (MDZ). Summed up:
as §2
Target sequence in this assay (P08684 whole entry): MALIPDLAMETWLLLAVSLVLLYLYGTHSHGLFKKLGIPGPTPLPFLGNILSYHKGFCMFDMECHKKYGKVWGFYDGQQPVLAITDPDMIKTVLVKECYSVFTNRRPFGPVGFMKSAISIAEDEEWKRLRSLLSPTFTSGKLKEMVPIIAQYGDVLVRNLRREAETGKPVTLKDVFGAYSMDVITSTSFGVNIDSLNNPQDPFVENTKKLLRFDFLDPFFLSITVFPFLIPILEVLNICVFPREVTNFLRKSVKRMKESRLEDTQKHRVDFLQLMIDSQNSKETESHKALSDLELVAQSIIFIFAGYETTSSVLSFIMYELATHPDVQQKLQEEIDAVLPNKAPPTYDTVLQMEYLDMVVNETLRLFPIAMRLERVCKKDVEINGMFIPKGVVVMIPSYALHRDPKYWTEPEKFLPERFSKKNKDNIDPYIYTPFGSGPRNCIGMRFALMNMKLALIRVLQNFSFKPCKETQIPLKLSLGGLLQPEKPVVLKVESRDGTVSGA

For the next experiment, the target named is T4, CYP2D6 (Homo sapiens, UniProt P10635).
T4 construct: 0.1 mg/mL protein human liver microsomes (BD Gentest); tissue BD Gentest; host or cells: human liver microsomes
Briefly: Cocktail assay for CYPs, dextromethorphan O-demethylation (CYP2D6), human liver microsomes. The settings on record: 5 μM dextromethorphan, 0.1 mg/mL human liver microsomes, 10 min at 37° C.; read-out: CYP IC50 (nM) 2D6. In a few lines:
as §2

The target of a further experiment is T5, CYP2C9 (Homo sapiens, UniProt P11712).
T5 construct: 0.1 mg/mL protein human liver microsomes (BD Gentest); tissue BD Gentest; host or cells: human liver microsomes
Briefly: Cocktail assay for CYPs, diclofenac 4′-hydroxylation (CYP2C9), human liver microsomes. To be noted: 5 μM diclofenac, 0.1 mg/mL human liver microsomes, 10 min at 37° C.; read-out: CYP IC50 (nM) 2C9. In a few lines:
as §1

T5 sequence (P11712 whole entry): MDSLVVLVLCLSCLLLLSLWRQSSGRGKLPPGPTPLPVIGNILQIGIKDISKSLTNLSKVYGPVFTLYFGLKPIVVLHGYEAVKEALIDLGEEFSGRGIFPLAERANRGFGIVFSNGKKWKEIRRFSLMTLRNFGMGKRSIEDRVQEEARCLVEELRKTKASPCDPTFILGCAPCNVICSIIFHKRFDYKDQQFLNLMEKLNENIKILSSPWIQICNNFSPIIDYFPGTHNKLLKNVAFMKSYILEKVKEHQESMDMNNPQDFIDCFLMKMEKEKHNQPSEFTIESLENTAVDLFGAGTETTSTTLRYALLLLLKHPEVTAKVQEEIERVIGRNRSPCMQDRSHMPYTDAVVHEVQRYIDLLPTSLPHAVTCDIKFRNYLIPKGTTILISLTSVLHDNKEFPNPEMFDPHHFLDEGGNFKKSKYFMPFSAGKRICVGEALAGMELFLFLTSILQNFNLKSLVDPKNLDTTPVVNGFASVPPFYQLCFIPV
T1 sequence (P33261 whole entry): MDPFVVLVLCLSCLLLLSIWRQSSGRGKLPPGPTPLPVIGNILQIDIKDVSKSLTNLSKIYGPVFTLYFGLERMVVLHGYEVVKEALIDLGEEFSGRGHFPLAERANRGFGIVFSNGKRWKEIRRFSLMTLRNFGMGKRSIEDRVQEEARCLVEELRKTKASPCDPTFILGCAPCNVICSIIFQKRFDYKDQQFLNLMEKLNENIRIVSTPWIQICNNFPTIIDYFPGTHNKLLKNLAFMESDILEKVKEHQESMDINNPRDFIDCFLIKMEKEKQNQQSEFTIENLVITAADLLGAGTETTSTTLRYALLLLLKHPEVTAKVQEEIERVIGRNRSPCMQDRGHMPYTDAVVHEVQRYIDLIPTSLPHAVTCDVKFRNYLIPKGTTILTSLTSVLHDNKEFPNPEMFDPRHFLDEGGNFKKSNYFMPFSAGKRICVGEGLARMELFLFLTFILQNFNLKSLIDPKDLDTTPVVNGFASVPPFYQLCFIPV
T4 sequence (P10635 whole entry): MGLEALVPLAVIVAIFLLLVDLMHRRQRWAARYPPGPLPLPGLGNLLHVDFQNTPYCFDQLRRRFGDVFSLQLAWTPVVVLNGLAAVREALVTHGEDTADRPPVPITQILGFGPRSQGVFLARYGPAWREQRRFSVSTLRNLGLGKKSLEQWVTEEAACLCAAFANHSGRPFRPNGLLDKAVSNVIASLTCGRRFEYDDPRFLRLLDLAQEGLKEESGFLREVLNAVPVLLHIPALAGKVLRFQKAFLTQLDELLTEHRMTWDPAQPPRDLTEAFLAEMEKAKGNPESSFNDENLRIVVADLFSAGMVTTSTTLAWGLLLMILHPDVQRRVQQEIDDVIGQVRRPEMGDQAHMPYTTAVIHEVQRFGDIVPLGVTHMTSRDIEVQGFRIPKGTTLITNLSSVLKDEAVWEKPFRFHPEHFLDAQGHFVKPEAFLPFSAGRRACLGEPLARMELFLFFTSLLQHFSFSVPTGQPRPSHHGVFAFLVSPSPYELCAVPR

For the compound `CC(C)NC(=O)N1CCCC1c1ccccc1-c1cncn1CCc1ccc(F)cc1` (single isomer, unassigned) [Compound 46b, (R or S)-2-(2-(1-(4-fluorophenethyl)-1H-imidazol-5-yl)phenyl)-N-isopropyl-pyrrolidine-1-carboxamide], the IC50 is over 10000 nM at CYP2C19; 6.2 nM on CYP3A4 [1]; over 10000 nM on CYP1A2; 6.1 nM at CYP3A4 [2]; over 10000 nM at CYP2D6; over 10000 nM on CYP2C9.

With `CC(C)NC(=O)N1CCCC1c1ccccc1-c1cncn1CCc1ccc(F)cc1` (single isomer, unassigned) [Compound 46a, (R or S)-2-(2-(1-(4-fluorophenethyl)-1H-imidazol-5-yl)phenyl)-N-isopropyl-pyrrolidine-1-carboxamide], the IC50 at CYP2C19 is over 10000 nM; at CYP3A4 [1] it was 45.3 nM; on CYP1A2, over 10000 nM; on CYP3A4 [2] it was 58.5 nM; at CYP2D6 it was over 10000 nM; on CYP2C9 it was over 10000 nM.

`CC(=O)Nc1ncc(S(=O)(=O)NCc2ccccc2-c2cncn2CCc2ccc(F)cc2)s1` [Compound 18, N-(5-(N-(2-(1-(4-fluorophenethyl)-1H-imidazol-5-yl)benzyl)sulfamoyl)thiazol-2-yl) acetamide]: the IC50 at CYP2C19 is 2930 nM; at CYP3A4 [1] it was 18.6 nM; on CYP1A2, over 10000 nM; at CYP3A4 [2], 15.8 nM; at CYP2D6 it was 7180 nM; at CYP2C9 it was over 10000 nM.

`O=C(C1CC1)N1CCCC1c1ccccc1-c1cncn1CCc1ccc(F)cc1` (single isomer, unassigned) [Compound 44b, (R or S)-cyclopropyl(2-(2-(1-(4-fluorophenethyl)-1H-imidazol-5-yl)phenyl)pyrrolidin-1-yl)methanone]: the IC50 on CYP2C19 is 7130 nM; on CYP3A4 [1], 6.4 nM; at CYP1A2, over 10000 nM; at CYP3A4 [2], 6.7 nM; at CYP2D6, over 10000 nM; on CYP2C9, 5900 nM.

In the case of `COCCn1cncc1-c1ccccc1C1CCCN1S(=O)(=O)c1cnc(NC(C)=O)s1` (stereo not drawn) [Compound 20, N-(5-((2-(2-(1-(2-methoxyethyl)-1H-imidazol-5-yl)phenyl)pyrrolidin-1-yl)sulfonyl)thiazol-2-yl)acetamide], the IC50 was over 10000 nM on CYP2C19; at least 100 nM on CYP3A4 [1]; over 10000 nM on CYP1A2; 38.5 nM on CYP3A4 [2]; over 10000 nM on CYP2D6; over 10000 nM on CYP2C9.

Take `O=C(NCc1ccc(S(=O)(=O)N2CCCC2c2cccc(-c3cncn3CCc3ccc(F)cc3)c2)s1)c1ccccc1` (single isomer, unassigned) [Compound 55b, (R or S)-N-((5-((2-(3-(1-(4-fluorophenethyl)-1H-imidazol-5-yl)phenyl)pyrrolidin-1-yl)sulfonyl)thiophen-2-yl)methyl) benzamide]: the IC50 on CYP2C19 was 56 nM; on CYP3A4 [1], 0.92 nM; at CYP1A2, 158 nM; at CYP3A4 [2], 5.1 nM; at CYP2D6, 163 nM; on CYP2C9, 63.8 nM.

For orientation: IC50 means the concentration needed to halve the response being measured.
